In PubChem BioAssay (NCI):
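1) Cells in 96-well plates. 2) Compound, 48 h, 5 concentrations. 3) Linear interpolation between surrounding doses. 4) Unreached endpoint = highest concentration. The concentration for full growth arrest is given as TGI.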

Columns and labels:
Assay in all cases: growth of human tumour cells (NCI), 48 h
A498 renal = test system: A498 renal
A549 NSCLC = test system: A549 NSCLC
ACHN renal = test system: ACHN renal
CAKI-1 renal = test system: CAKI-1 renal
CCRF-CEM leukemia = test system: CCRF-CEM leukemia
COLO 205 colon = test system: COLO 205 colon
DU-145 prostate = test system: DU-145 prostate
EKVX NSCLC = test system: EKVX NSCLC
HCC-2998 colon = test system: HCC-2998 colon
HCT-116 colon = test system: HCT-116 colon
HCT-15 colon = test system: HCT-15 colon
HL-60(TB) leukemia = test system: HL-60(TB) leukemia
HOP-62 NSCLC = test system: HOP-62 NSCLC
HT29 colon = test system: HT29 colon
IGROV1 ovarian = test system: IGROV1 ovarian
K-562 leukemia = test system: K-562 leukemia
LOX IMVI melanoma = test system: LOX IMVI melanoma
M14 melanoma = test system: M14 melanoma
MALME-3M melanoma = test system: MALME-3M melanoma
MCF7 breast = test system: MCF7 breast
MDA-MB-231 breast = test system: MDA-MB-231 breast
MDA-MB-435 = test system: MDA-MB-435
MDA-N = test system: MDA-N
MOLT-4 leukemia = test system: MOLT-4 leukemia
NCI-H460 lung = test system: NCI-H460 lung
NCI-H522 lung = test system: NCI-H522 lung
NCI/ADR-RES ovarian = test system: NCI/ADR-RES ovarian
OVCAR-3 ovarian = test system: OVCAR-3 ovarian
OVCAR-5 ovarian = test system: OVCAR-5 ovarian
OVCAR-8 ovarian = test system: OVCAR-8 ovarian
PC-3 prostate = test system: PC-3 prostate
RPMI-8226 leukemia = test system: RPMI-8226 leukemia
SF-268 CNS = test system: SF-268 CNS
SF-295 CNS = test system: SF-295 CNS
SK-MEL-28 melanoma = test system: SK-MEL-28 melanoma
SK-MEL-5 melanoma = test system: SK-MEL-5 melanoma
SK-OV-3 ovarian = test system: SK-OV-3 ovarian
SNB-19 CNS = test system: SNB-19 CNS
SR leukemia = test system: SR leukemia
SW-620 colon = test system: SW-620 colon
T-47D breast = test system: T-47D breast
TK-10 renal = test system: TK-10 renal
U251 CNS = test system: U251 CNS
UACC-257 melanoma = test system: UACC-257 melanoma
UACC-62 melanoma = test system: UACC-62 melanoma
UO-31 renal = test system: UO-31 renal
786-0 renal = test system: 786-0 renal
BT-549 breast = test system: BT-549 breast
HOP-92 NSCLC = test system: HOP-92 NSCLC
HS 578T breast = test system: HS 578T breast
KM12 colon = test system: KM12 colon
NCI-H226 lung = test system: NCI-H226 lung
NCI-H23 lung = test system: NCI-H23 lung
RXF 393 renal = test system: RXF 393 renal
SF-539 CNS = test system: SF-539 CNS
SN12C renal = test system: SN12C renal
SNB-75 CNS = test system: SNB-75 CNS
OVCAR-4 ovarian = test system: OVCAR-4 ovarian
SK-MEL-2 melanoma = test system: SK-MEL-2 melanoma

COc1ccc(-c2oc3cc(OC(C)=O)cc(OC(C)=O)c3c(=O)c2OC)cc1
TGI (A498 renal): 61.1 µM
TGI (A549 NSCLC): 74.1 µM
TGI (ACHN renal): 45.8 µM
TGI (CAKI-1 renal): 34.9 µM
TGI (CCRF-CEM leukemia): 49.6 µM
TGI (COLO 205 colon): 33.9 µM
TGI (DU-145 prostate): 45.2 µM
TGI (EKVX NSCLC): 47.8 µM
TGI (HCC-2998 colon): 32.3 µM
TGI (HCT-116 colon): 44.3 µM
TGI (HCT-15 colon): > 100 µM
TGI (HL-60(TB) leukemia): 33.9 µM
TGI (HOP-62 NSCLC): 42.4 µM
TGI (HT29 colon): 36.3 µM
TGI (IGROV1 ovarian): 38 µM
TGI (K-562 leukemia): 29.4 µM
TGI (LOX IMVI melanoma): 27.9 µM
TGI (M14 melanoma): 30.6 µM
TGI (MALME-3M melanoma): 65.6 µM
TGI (MCF7 breast): 48.4 µM
TGI (MDA-MB-231 breast): 63.7 µM
TGI (MDA-MB-435): 25.4 µM
TGI (MDA-N): 28.3 µM
TGI (MOLT-4 leukemia): 68.4 µM
TGI (NCI-H460 lung): 37.5 µM
TGI (NCI-H522 lung): 5.28 µM
TGI (NCI/ADR-RES ovarian): 36 µM
TGI (OVCAR-3 ovarian): 38.6 µM
TGI (OVCAR-5 ovarian): 47.3 µM
TGI (OVCAR-8 ovarian): 53.6 µM
TGI (PC-3 prostate): 59 µM
TGI (RPMI-8226 leukemia): 38.3 µM
TGI (SF-268 CNS): 46.9 µM
TGI (SF-295 CNS): 37.8 µM
TGI (SK-MEL-28 melanoma): 35.5 µM
TGI (SK-MEL-5 melanoma): 25 µM
TGI (SK-OV-3 ovarian): 80.6 µM
TGI (SNB-19 CNS): 79.4 µM
TGI (SR leukemia): 51.5 µM
TGI (SW-620 colon): 39.7 µM
TGI (T-47D breast): 57.9 µM
TGI (TK-10 renal): 70.8 µM
TGI (U251 CNS): 30.6 µM
TGI (UACC-257 melanoma): 34.7 µM
TGI (UACC-62 melanoma): 22.7 µM
TGI (UO-31 renal): 51.7 µM

c1ccc(-c2c(-c3cccs3)[nH]c(-c3cccs3)c2-c2ccccn2)nc1
TGI (786-0 renal): 53 µM
TGI (A498 renal): 78.2 µM
TGI (A549 NSCLC): 72.8 µM
TGI (ACHN renal): > 100 µM
TGI (BT-549 breast): 41.5 µM
TGI (CAKI-1 renal): > 100 µM
TGI (CCRF-CEM leukemia): 52.5 µM
TGI (COLO 205 colon): 30.6 µM
TGI (DU-145 prostate): > 100 µM
TGI (EKVX NSCLC): 65.4 µM
TGI (HCC-2998 colon): 44.3 µM
TGI (HCT-116 colon): > 100 µM
TGI (HCT-15 colon): 40.4 µM
TGI (HL-60(TB) leukemia): > 100 µM
TGI (HOP-92 NSCLC): 55.4 µM
TGI (HS 578T breast): 59.7 µM
TGI (HT29 colon): 30.3 µM
TGI (IGROV1 ovarian): 59.3 µM
TGI (K-562 leukemia): 37 µM
TGI (KM12 colon): 62.6 µM
TGI (LOX IMVI melanoma): 37.1 µM
TGI (M14 melanoma): 40.7 µM
TGI (MALME-3M melanoma): 77.1 µM
TGI (MDA-MB-231 breast): 48.7 µM
TGI (MDA-MB-435): 43.6 µM
TGI (MDA-N): > 100 µM
TGI (MOLT-4 leukemia): 38.3 µM
TGI (NCI-H226 lung): 49.2 µM
TGI (NCI-H23 lung): > 100 µM
TGI (NCI-H460 lung): 63.5 µM
TGI (NCI/ADR-RES ovarian): 64.8 µM
TGI (OVCAR-3 ovarian): 58.3 µM
TGI (OVCAR-5 ovarian): 66.6 µM
TGI (OVCAR-8 ovarian): 75.2 µM
TGI (PC-3 prostate): 30.8 µM
TGI (RPMI-8226 leukemia): 68.5 µM
TGI (RXF 393 renal): 53.5 µM
TGI (SF-268 CNS): 49.8 µM
TGI (SF-295 CNS): 39.2 µM
TGI (SF-539 CNS): 40.6 µM
TGI (SK-MEL-5 melanoma): 26.6 µM
TGI (SK-OV-3 ovarian): 51.3 µM
TGI (SN12C renal): 67.9 µM
TGI (SNB-19 CNS): > 100 µM
TGI (SNB-75 CNS): 42.9 µM
TGI (SR leukemia): 81.1 µM
TGI (SW-620 colon): 68.8 µM
TGI (T-47D breast): 94.9 µM
TGI (TK-10 renal): > 100 µM
TGI (U251 CNS): 48.7 µM
TGI (UACC-257 melanoma): 43.6 µM
TGI (UACC-62 melanoma): 35.6 µM
TGI (UO-31 renal): 57.3 µM

C/C(=N\Nc1nc2ccccc2[nH]1)c1cnccn1
TGI (786-0 renal): > 100 µM
TGI (A498 renal): 7.75 µM
TGI (A549 NSCLC): > 40.5 µM
TGI (BT-549 breast): > 85.3 µM
TGI (CAKI-1 renal): 14.9 µM
TGI (CCRF-CEM leukemia): 6.75 µM
TGI (COLO 205 colon): > 40.2 µM
TGI (EKVX NSCLC): > 34.4 µM
TGI (HCC-2998 colon): 59.8 µM
TGI (HCT-116 colon): > 38 µM
TGI (HCT-15 colon): > 100 µM
TGI (HL-60(TB) leukemia): 0.429 µM
TGI (HOP-62 NSCLC): > 100 µM
TGI (HOP-92 NSCLC): 2.38 µM
TGI (HS 578T breast): > 100 µM
TGI (HT29 colon): > 48 µM
TGI (IGROV1 ovarian): > 38.4 µM
TGI (K-562 leukemia): > 100 µM
TGI (KM12 colon): 22.4 µM
TGI (LOX IMVI melanoma): > 30.5 µM
TGI (M14 melanoma): 4.66 µM
TGI (MALME-3M melanoma): > 25.6 µM
TGI (MCF7 breast): > 66.8 µM
TGI (MDA-MB-231 breast): > 57.8 µM
TGI (MDA-MB-435): > 29.6 µM
TGI (MDA-N): > 100 µM
TGI (MOLT-4 leukemia): > 100 µM
TGI (NCI-H23 lung): > 30.7 µM
TGI (NCI-H460 lung): > 100 µM
TGI (NCI/ADR-RES ovarian): 21.3 µM
TGI (OVCAR-3 ovarian): > 100 µM
TGI (OVCAR-4 ovarian): > 100 µM
TGI (OVCAR-5 ovarian): > 100 µM
TGI (OVCAR-8 ovarian): > 93.3 µM
TGI (PC-3 prostate): > 88.4 µM
TGI (RXF 393 renal): 4.81 µM
TGI (SF-268 CNS): > 100 µM
TGI (SF-295 CNS): > 76.5 µM
TGI (SK-MEL-2 melanoma): 26 µM
TGI (SK-MEL-5 melanoma): 13.2 µM
TGI (SK-OV-3 ovarian): > 100 µM
TGI (SN12C renal): 12.4 µM
TGI (SNB-19 CNS): > 100 µM
TGI (SNB-75 CNS): > 53.9 µM
TGI (SW-620 colon): > 66 µM
TGI (T-47D breast): > 68.4 µM
TGI (TK-10 renal): > 66.5 µM
TGI (U251 CNS): > 59.5 µM
TGI (UACC-257 melanoma): > 31 µM
TGI (UACC-62 melanoma): > 22.3 µM
TGI (UO-31 renal): > 27.2 µM

CCc1c(CNC2=NCCN2)c(CC)c(CNC2=NCCN2)c(CC)c1CNC1=NCCN1
TGI (786-0 renal): > 100 µM
TGI (A498 renal): > 100 µM
TGI (A549 NSCLC): > 100 µM
TGI (ACHN renal): > 100 µM
TGI (BT-549 breast): > 100 µM
TGI (CAKI-1 renal): > 100 µM
TGI (CCRF-CEM leukemia): > 100 µM
TGI (COLO 205 colon): > 100 µM
TGI (DU-145 prostate): > 100 µM
TGI (EKVX NSCLC): > 100 µM
TGI (HCC-2998 colon): > 100 µM
TGI (HCT-116 colon): > 100 µM
TGI (HCT-15 colon): > 100 µM
TGI (HOP-62 NSCLC): > 100 µM
TGI (HOP-92 NSCLC): > 100 µM
TGI (HS 578T breast): > 100 µM
TGI (HT29 colon): > 100 µM
TGI (IGROV1 ovarian): > 100 µM
TGI (K-562 leukemia): > 100 µM
TGI (KM12 colon): > 100 µM
TGI (M14 melanoma): > 100 µM
TGI (MALME-3M melanoma): > 100 µM
TGI (MCF7 breast): > 100 µM
TGI (MDA-MB-435): > 100 µM
TGI (MDA-N): > 100 µM
TGI (MOLT-4 leukemia): > 100 µM
TGI (NCI-H226 lung): > 100 µM
TGI (NCI-H23 lung): > 100 µM
TGI (NCI-H460 lung): > 100 µM
TGI (NCI-H522 lung): > 100 µM
TGI (NCI/ADR-RES ovarian): > 100 µM
TGI (OVCAR-3 ovarian): > 100 µM
TGI (OVCAR-4 ovarian): > 100 µM
TGI (OVCAR-5 ovarian): > 100 µM
TGI (OVCAR-8 ovarian): > 100 µM
TGI (PC-3 prostate): > 100 µM
TGI (RPMI-8226 leukemia): > 100 µM
TGI (RXF 393 renal): > 100 µM
TGI (SF-268 CNS): > 100 µM
TGI (SF-295 CNS): > 100 µM
TGI (SF-539 CNS): > 100 µM
TGI (SK-MEL-2 melanoma): > 100 µM
TGI (SK-MEL-28 melanoma): > 100 µM
TGI (SK-MEL-5 melanoma): > 100 µM
TGI (SK-OV-3 ovarian): > 100 µM
TGI (SN12C renal): > 100 µM
TGI (SNB-19 CNS): > 100 µM
TGI (SNB-75 CNS): > 100 µM
TGI (SR leukemia): > 100 µM
TGI (SW-620 colon): > 100 µM
TGI (T-47D breast): > 100 µM
TGI (TK-10 renal): > 100 µM
TGI (U251 CNS): > 100 µM
TGI (UACC-257 melanoma): > 100 µM
TGI (UACC-62 melanoma): > 100 µM
TGI (UO-31 renal): > 100 µM
